According to ChEMBL document CHEMBL1201862, “PubChem BioAssay data set” (2004):
Values joined by “and” are separate entries in the source; they are usually repeats but may differ in a detail not shown here. Equal values may be shown once.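 Where inhibition never reached the appropriate level, the endpoint shown equals the highest concentration tested. Otherwise, values were interpolated linearly from a five-concentration, 48-hour dose response in 96-well plates. GI50 marks 50% less growth.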 Active and inactive are the calls of the source. No stated cut-off is given here; in the data, active = GI50 up to about 1.1 µM and inactive = higher.

Key:
Test in all cases: DTP human tumour cell line panel, 48 h
SK-MEL-5 = tested on: SK-MEL-5
HT-29 = tested on: HT-29
MDA-N = tested on: MDA-N
RXF 393 = tested on: RXF 393
SF-539 = tested on: SF-539
K562 = tested on: K562
MCF7 = tested on: MCF7
KM12 = tested on: KM12
OVCAR-3 = tested on: OVCAR-3
HL-60 = tested on: HL-60
NCI-H460 = tested on: NCI-H460
SN12C = tested on: SN12C
DU-145 = tested on: DU-145
SNB-19 = tested on: SNB-19
COLO 205 = tested on: COLO 205
U-251 = tested on: U-251
NCI-H23 = tested on: NCI-H23
SF-268 = tested on: SF-268
RPMI-8226 = tested on: RPMI-8226
NCI-H522 = tested on: NCI-H522

Row | Structure (SMILES) | GI50 (SK-MEL-5) | GI50 (HT-29) | GI50 (MDA-N) | GI50 (RXF 393) | GI50 (SF-539) | GI50 (K562) | GI50 (MCF7) | GI50 (KM12) | GI50 (OVCAR-3) | GI50 (HL-60) | GI50 (NCI-H460) | GI50 (SN12C) | GI50 (DU-145) | GI50 (SNB-19) | GI50 (COLO 205) | GI50 (U-251) | GI50 (NCI-H23) | GI50 (SF-268) | GI50 (RPMI-8226) | GI50 (NCI-H522)
1 | COC(=O)C1=C(C)NC2=C(C(=O)c3ccccc32)C1c1c[nH]nc1-c1ccccc1 (configuration not stated) | 31.8 µM (inactive) | 24.3 µM (inactive) | 51.5 µM (inactive) | 43.4 µM (inactive) | 29.9 µM (inactive) | > 100 µM (inactive) | 44.7 µM (inactive) | 86.7 µM (inactive) | 48.6 µM (inactive) | 39.8 µM (inactive) | 51.9 µM (inactive) | 72.9 µM (inactive) | > 100 µM (inactive) | 41.5 µM (inactive) | 20.9 µM (inactive) | 72.1 µM (inactive) | > 100 µM (inactive) | 26.2 µM (inactive) | 49 µM (inactive) | 19.7 µM (inactive)
2 | Nc1ncnc2c1ccn2C1OC2COP(=O)(O)OC2C1O (configuration not stated) | 0.327 µM (active) | 0.137 µM (active) | 0.379 µM (active) | 0.212 µM (active) | 3.51 µM (inactive) | 0.261 µM (active) | 0.444 µM (active) | 0.363 µM (active) | 0.275 µM (active) | < 0.0476 µM (active) | 0.168 µM (active) | 0.207 µM (active) | 0.723 µM (active) | 1.61 µM (inactive) | 0.181 µM (active) | 0.31 µM (active) | 0.885 µM (active) | 0.46 µM (active) | 0.124 µM (active) | 0.14 µM (active)
3 | O=C(O)c1ccc(C2SCc3nc4ccccc4n32)cc1 (configuration not stated) | > 100 µM (inactive) | > 100 µM (inactive) | > 100 µM (inactive) | > 100 µM (inactive) | > 100 µM (inactive) | > 100 µM (inactive) | > 100 µM (inactive) | > 100 µM (inactive) | > 100 µM (inactive) | > 100 µM (inactive) | > 100 µM (inactive) | > 100 µM (inactive) | > 100 µM (inactive) | > 100 µM (inactive) |  | > 100 µM (inactive) | > 100 µM (inactive) | > 100 µM (inactive) | > 100 µM (inactive) | > 100 µM (inactive)
4 | Cn1c2c(c3c(=O)[nH]ncc31)CCc1ccccc1-2 | 17.8 µM (inactive) | 32.6 µM (inactive) | 25.9 µM (inactive) | 18.8 µM (inactive) | 46.5 µM (inactive) | 29.8 µM (inactive) | 21.6 µM (inactive) | 23 µM (inactive) | 26.4 µM (inactive) | 27 µM (inactive) | 16 µM (inactive) | 34.8 µM (inactive) | 35.7 µM (inactive) | 45.8 µM (inactive) | 30 µM (inactive) | 33.5 µM (inactive) | 26.1 µM (inactive) | 31.2 µM (inactive) | 25.5 µM (inactive) | 42.5 µM (inactive)
5 | O=c1cc(-c2ccccc2)[nH]c2ccc(S)cc12 | 15.5 µM (inactive) | 29 µM (inactive) | > 10 µM (inactive) | 31.5 µM (inactive) | 72.3 µM (inactive) | 21.9 µM (inactive) | 24.2 µM (inactive) | 28.8 µM (inactive) | 28.6 µM (inactive) | 35.7 µM (inactive) | 31.8 µM (inactive) | 18.3 µM (inactive) | 52.2 µM (inactive) | 64.4 µM (inactive) | 38.3 µM (inactive) | 26.1 µM (inactive) | 33.9 µM (inactive) | 41.9 µM (inactive) | 44.2 µM (inactive) | 21.7 µM (inactive)
6 | Cc1ccc(/C=C2/N/C(=N\N=C/C(O)C(O)C(O)CO)NC2=O)cc1 (configuration not stated) | > 100 µM (inactive) | > 100 µM (inactive) | > 100 µM (inactive) | > 100 µM (inactive) | > 100 µM (inactive) | 55.5 µM (inactive) and 47.8 µM (inactive) | > 100 µM (inactive) | > 100 µM (inactive) | 52.4 µM (inactive) and 69.8 µM (inactive) | 56.5 µM (inactive) and 56.4 µM (inactive) | > 100 µM (inactive) | > 100 µM (inactive) | > 100 µM (inactive) | > 100 µM (inactive) | > 100 µM (inactive) | > 100 µM (inactive) | > 10 µM (inactive) | > 100 µM (inactive) | > 100 µM (inactive) | 71.6 µM (inactive)
7 | CC(=O)OC1[C@@H](OC(C)=O)CN(OCc2ccccc2)C[C@H]1OC(C)=O (some centres not stated) | > 100 µM (inactive) | > 100 µM (inactive) | > 100 µM (inactive) | > 100 µM (inactive) | > 100 µM (inactive) | > 100 µM (inactive) | > 100 µM (inactive) | > 100 µM (inactive) | > 100 µM (inactive) | > 100 µM (inactive) | > 100 µM (inactive) | > 100 µM (inactive) | > 100 µM (inactive) | > 100 µM (inactive) | > 100 µM (inactive) | > 100 µM (inactive) | > 100 µM (inactive) | > 100 µM (inactive) | > 100 µM (inactive) | > 100 µM (inactive)
8 | Cn1c2ccccc2c(=NNc2ccc(C(=O)O)cc2)c2ccccc21 | 17.6 µM (inactive) | 13.1 µM (inactive) | 17.7 µM (inactive) | 15.4 µM (inactive) | 19.2 µM (inactive) | 6.79 µM (inactive) | 10.4 µM (inactive) | 15.7 µM (inactive) | 16.5 µM (inactive) | 14.6 µM (inactive) | 16.1 µM (inactive) | 18.1 µM (inactive) | 19.5 µM (inactive) | 21.8 µM (inactive) | 15.3 µM (inactive) | 11.1 µM (inactive) | 21.1 µM (inactive) | 15.8 µM (inactive) | 12.9 µM (inactive) | 10.7 µM (inactive)
9 | O=c1c2ncn(C3CC(O)C(CO)O3)c2nnn1Cc1ccccc1[N+](=O)[O-] (configuration not stated) | > 100 µM (inactive) | > 100 µM (inactive) | > 100 µM (inactive) | 17.8 µM (inactive) | > 100 µM (inactive) | > 100 µM (inactive) | > 100 µM (inactive) | > 100 µM (inactive) | 75 µM (inactive) | 57.3 µM (inactive) | > 100 µM (inactive) | > 100 µM (inactive) | > 100 µM (inactive) | > 100 µM (inactive) | > 100 µM (inactive) | > 100 µM (inactive) | > 100 µM (inactive) | > 100 µM (inactive) | > 100 µM (inactive) | > 100 µM (inactive)
10 | C=C(CN(C)C)C(=O)c1ccc(C)cc1C | 14.1 µM (inactive) | 7.66 µM (inactive) | 4.55 µM (inactive) | 4.51 µM (inactive) | 12.7 µM (inactive) | 1.15 µM (inactive) | 3.3 µM (inactive) | 15.9 µM (inactive) | 7.87 µM (inactive) | 0.46 µM (active) | 18.8 µM (inactive) | 11.8 µM (inactive) | 17.6 µM (inactive) | 32.7 µM (inactive) | 3.38 µM (inactive) | 16.9 µM (inactive) | 10.6 µM (inactive) | 15.3 µM (inactive) | 1.16 µM (inactive) | 2.9 µM (inactive)
11 | COC(=O)c1ccccc1/C=C1\Cc2cc(C)cc(C)c2C1=O | > 100 µM (inactive) | > 100 µM (inactive) | > 100 µM (inactive) | > 100 µM (inactive) | > 100 µM (inactive) | > 100 µM (inactive) | > 100 µM (inactive) | > 100 µM (inactive) | > 100 µM (inactive) | > 100 µM (inactive) | > 100 µM (inactive) | > 100 µM (inactive) | > 100 µM (inactive) | 72.4 µM (inactive) |  | > 100 µM (inactive) | > 100 µM (inactive) | > 100 µM (inactive) | > 100 µM (inactive) | 5.46 µM (inactive)
12 | CCN(CC)/[N+]([O-])=N/OS(=O)(=O)N(C)C | > 100 µM (inactive) | > 100 µM (inactive) | > 100 µM (inactive) | > 100 µM (inactive) | > 100 µM (inactive) | > 100 µM (inactive) | > 100 µM (inactive) | > 100 µM (inactive) | > 100 µM (inactive) | > 100 µM (inactive) | > 100 µM (inactive) | > 100 µM (inactive) | > 100 µM (inactive) | > 100 µM (inactive) | > 100 µM (inactive) | > 100 µM (inactive) | > 100 µM (inactive) | > 100 µM (inactive) | > 100 µM (inactive) | > 100 µM (inactive)
13 | O=C(CCCN1CCC(Nc2ccccc2)(c2nnnn2C2CCCCC2)CC1)c1ccc(F)cc1 | 1.64 µM (inactive) | 3.03 µM (inactive) | 5.28 µM (inactive) | 9.64 µM (inactive) | 2.25 µM (inactive) | 13 µM (inactive) | 2.28 µM (inactive) | 8.47 µM (inactive) | 9.27 µM (inactive) | 4.73 µM (inactive) | 8.65 µM (inactive) | 10.6 µM (inactive) | 3.81 µM (inactive) | 9.64 µM (inactive) | 2.24 µM (inactive) | 5.86 µM (inactive) | 13.7 µM (inactive) | 2.4 µM (inactive) | 3.48 µM (inactive) | 6.55 µM (inactive)
14 | O=C(c1cc(Cl)ccc1Cl)N1CCN(c2ccc(Cl)c(Cl)c2)CC1 | 14.6 µM (inactive) | 22.8 µM (inactive) | 38.1 µM (inactive) | 15.4 µM (inactive) | 19.2 µM (inactive) | 18.1 µM (inactive) | 8.67 µM (inactive) | 16 µM (inactive) | 31.4 µM (inactive) | 76.9 µM (inactive) | 17 µM (inactive) | 33.3 µM (inactive) | 61.2 µM (inactive) | > 10 µM (inactive) |  | 27.2 µM (inactive) | 33.5 µM (inactive) | 47.2 µM (inactive) | 74.6 µM (inactive) | 20.7 µM (inactive)
